The nature of data set [1]: absorption spectrum (maximum absorption wavelength, molar extinction coefficient). The class given is physicochemical.
Data set [2] is described as follows: singlet oxygen efficiency test, reference rose bengal. The format is physicochemical. The settings on record: for singlet oxygen efficiencies: comparison with reference rose bengal RB, FIG. 7.
Data set [3] in a line: water solubility in normal saline. The format is physicochemical. The following applies: per milliliter of normal saline. The procedure:
Most of photosensitizer molecules disclosed in this patent contain a large number of hydrophilic groups, such as a polyethylene glycol chain, a quaternary ammonium salt, a carboxyl group, and a sulfonic acid group, etc., making the photosensitizer molecules have very high water solubility in a physiological condition; and experiments indicate that each milliliter of normal saline or glucose injection can dissolve more than 5 mg of such the photosensitizer molecules, presenting excellent water solubility. Therefore, the photosensitive drug can be well transported in blood vessels during intravenous injection, without causing a vascular blockage. HB-1c-C2-N+ prepared in example 4 contains two quaternary ammonium salts, and each milliliter of normal saline can dissolve more than 20 mg of photosensitizer molecules; HC-1c-PEG6 prepared in example 6 contains two 6-PEG chains, and each milliliter of normal saline can dissolve more than 20 mg of photosensitizer molecules; HB-8c prepared in example 19 contains two carboxyl groups, and each milliliter of normal saline can dissolve more than 10 mg of photosensitizer molecules; HB-13c prepared in example 35 contains two carboxyl groups, and each milliliter of normal saline can dissolve more than 10 mg of photosensitizer molecules; and HB-13c-PEG8 prepared in example 37 contains two 8-PEG chains, and each milliliter of normal saline can dissolve more than 20 mg of photosensitizer molecules. These photosensitizer molecules all present excellent water solubility.

The nature of data set [4]: pH stability of absorption spectrum. The format is physicochemical. The settings on record: pH range of 6.2-8.0, FIG. 8. The source says: Therefore, the hypocrellin derivative prepared in the present invention has a better pH stability than the commercial hematoporphyrin HpD in the pH range of 6.2-8.0.
For data set [5], the system named is Hela cells. In words: dark cytotoxicity experiment (MTT). The settings on record: dark. Here is the method:
Dark cytotoxicity experiment: cultured Hela cells were digested with 0.25% trypsin and pipetted to prepare a single-cell suspension, the number of cells was adjusted to about 2×10^4 per milliliter, and 200 uL of the suspension was seeded in a well of a 96-well culture plate, which is placed in a 37° C. incubator containing 5% CO2 for cultivation. […] A cellular survival rate was measured by means of the MTT method. 20 uL of MTT was added to each well, wherein the MTT is MTT prepared with PBS and having a concentration of 5 mg/ml. The culture plate was placed in the 37° C. incubator containing 5% CO2 for further cultivation for 4 hours, after which the cultivation was terminated. A supernatant in the well was extracted and discarded carefully. Then, 150 uL of dimethyl sulfoxide was added to each well, and the culture plate was shaken by using a micro shaker for 10 minutes to fully dissolve a purple crystal substance. A wavelength of 570 nm was selected to measure an optical density value (i.e., OD value) of each well on a microplate reader, and the cellular survival rate was calculated in accordance with the following formula: cellular survival rate=OD value of an experimental group/OD value of a blank group×100%.

Data set [6] deals with Hela cells. The data set can be described thus: photo-cytotoxicity experiment (MTT, 635 nm laser). The class given is cell-based. The following applies: 635 nm light. The procedure: Photo-cytotoxicity experiment on cell: cultured Hela cells were digested and pipetted with 0.25% trypsin and to prepare a single-cell suspension, the number of cells was adjusted to about 2×10^4 per milliliter, and 200 uL of the suspension was seeded in a well of a 96-well culture plate, which is placed in a 37° C. incubator containing 5% CO2 for cultivation. After the cells adhere to the wall, a supernatant culture solution was discarded, and photosensitizers of different concentrations, that is, the hematoporphyrin derivative HpD, the hypocrellin B HB, or HB-1c-PEG6 synthesized in example 3, were added in a strictly lucifugous condition in accordance with experimental designs, and the culture plate was placed in the 37° C. incubator containing 5% CO2 for further cultivation and incubation for 1 hour. Then, a semiconductor laser with a wavelength of 635 nm was used for irradiation, a power density was adjusted to 20 mW/cm^2, light beams were evenly and vertically applied onto the 96-well culture plate, and an irradiation time was 1000 S. In addition, each 96-well culture plate is provided with a blank group, and 6 holes were provided for in each condition. After irradiation, the culture plate was placed in the 37° C. incubator containing 5% CO2 for further cultivation and incubation for 24 hours, and then a cellular survival rate was measured. The cellular survival rate was measured by means of the MTT method. 20 uL of MTT was added to each well, wherein the MTT is MTT prepared with PBS and having a concentration of 5 mg/ml. The culture plate was placed in the 37° C. incubator containing 5% CO2 for further cultivation for 4 hours, after which the cultivation was terminated. A supernatant in the well was extracted and discarded carefully. Then, 150 uL of dimethyl sulfoxide (DMSO) was added to each well, and the culture plate was shaken by using a micro shaker for 10 minutes to fully dissolve a purple crystal substance. A wavelength of 570 nm was selected to measure an optical density value (i.e., OD value) of each well on a microplate reader, and the cellular survival rate was calculated in accordance with the following formula: cellular survival rate=OD value of an experimental group/OD value of a blank group×100%.

For a further data set, the system named is singlet oxygen in a cell. In words: detection of singlet oxygen in a cell with fluorescence probe DCFH-DA. The format is cell-based. The following applies: co-incubation with DCFH-DA, irradiation time to 60 s, FIG. 11. The source says: DCFH-DA is used to detect singlet oxygen in a cell.
The nature of data set [7]: reactive oxygen measurement with singlet oxygen and superoxide radical scavengers. The class given is physicochemical. The following applies: FIG. 6(a), 6(b). The source says:
FIGS. 7(a)-7(d) show efficiency curves of measuring singlet oxygen of HB-1c and HC-1c. From the comparison with a reference rose bengal RB, it can be seen that the singlet oxygen efficiencies of HB-1c and HC-1c are respectively 0.40 and 0.38.

Molecules are shown by their SMILES. Entries after “also recorded” stand apart in the source; their conditions may differ.

Regarding `COCCOCCOCCOCCOCCOCCOCCC(=O)OCCOCCNc1c2c3c4c(c(OC)c(=O)c5c(O)cc(OC)c(c6c(OC)cc(NCCOCCOC(=O)CCOCCOCCOCCOCCOCCOCCOC)c(c1=O)c63)c54)CC(C)=C2` [HC-1c-PEG6], in data set [1], the maximum absorption wavelength stood at 628 nm and the molar extinction coefficient is reported as 33,500 M^−1cm^−1. This compound also had a singlet oxygen yield in data set [2] of 34%. The “amount dissolved by each milliliter of normal saline” value in data set [3] was “more than 20 mg”. In addition, the “pH stability, change in absorption spectrum” value in data set [4] was “good pH stability; also recorded: no obvious change”. For the same compound, in the data set with Hela cells [5], the “cytotoxicity when not exposed to light” value is listed as “almost no cytotoxicity”. For the same compound, in the data set with Hela cells [6] (140 nM, FIG. 13(b)), the Hela cells killed entry is recorded as “more than 90%”. In the data set on singlet oxygen in a cell, the “singlet oxygen in the cell (DCFH-DA green fluorescence)” value was “green fluorescence intensity is gradually increased”.

As to `COCCOCCOCCOCCOCCOCCOC(=O)CCCNc1c2c3c4c(c(OC)c(=O)c5c(O)cc(OC)c(c6c(OC)cc(NCCCC(=O)OCCOCCOCCOCCOCCOCCOC)c(c1=O)c63)c54)CC(C)=C2` [HC-8c-PEG6], in data set [1], the maximum absorption wavelength worked out at 632 nm and the molar extinction coefficient is recorded as 31,500 M^−1cm^−1. In data set [2], this compound showed a singlet oxygen yield of 36%. Further, the “cytotoxicity when not exposed to light” value with Hela cells [5] is given as “almost no cytotoxicity”. For the same compound, the Hela cells killed entry with Hela cells [6] (240 nM, FIG. 15(b)) was “more than 90%”.

On to `COc1c2c3c4c(c(NCCOCCO)c(=O)c5c(NCCOCCO)cc(OC)c(c6c(OC)cc(O)c(c1=O)c63)c54)C=C(C)C2` [HC-1c], for which the molar extinction coefficient in data set [1] was 30,000 M^−1cm^−1. In addition, in data set [2], the singlet oxygen yield is 38% and the singlet oxygen efficiencies was found to be 0.38. The “pH stability, change in absorption spectrum” value in data set [4] is on record as “no obvious change”.

In data set [2], `COc1c2c3c4c(c(NCCOCCO)c(=O)c5c(NCCOCCO)cc(OC)c(c6c(OC)cc(O)c(c1=O)c63)c54)C=C(C)C2C(C)=O` (stereo not shown) [HB-1c] returned a singlet oxygen efficiencies of 0.40. The “photosensitive reactive species produced” value in data set [7] is reported as “primarily producing singlet oxygen”.

The values above are taken from patent publication US11439707B2, “Hypocrellin derivative substituted both in a peri-position and in 2-position by amino, preparation method, and application thereof” (priority 2017, dated 2022).
